From US10239849B2 (Merck Sharp & Dohme Corp., priority 2015, dated 2019) come the findings set out here.

The structures appear in SMILES notation.

Experiment [1] deals with T1, glutathione-S-transferase (GST) tagged LXRbeta LBD (ligand binding domain) (Homo sapiens, UniProt P55055).
T1 construct: purchased Invitrogen pv4658.pps
T1 sequence (P55055 222-460 limits assumed): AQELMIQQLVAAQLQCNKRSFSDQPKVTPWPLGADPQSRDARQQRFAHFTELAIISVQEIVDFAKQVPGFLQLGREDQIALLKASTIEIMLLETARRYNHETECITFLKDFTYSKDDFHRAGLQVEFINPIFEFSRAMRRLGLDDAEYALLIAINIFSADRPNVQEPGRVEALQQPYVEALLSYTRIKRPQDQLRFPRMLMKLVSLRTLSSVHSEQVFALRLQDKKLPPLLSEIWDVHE
Briefly: LanthaScreen TR-FRET Liver X Receptor Coactivator Assay, LXR beta-LBD. The class given is biochemical. The following applies: for Emax: efficacy in relation to reference dual agonist T1317, read-out: LXR beta activity at max dose (%) (Emax); for EC50: potency (Inflection Point) of co-activator recruitment, TR-FRET, read-out: LXR beta IP. A digest of the protocol:
(§1)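 LXR alpha- or beta-LBD was added to test compounds, then a mix of fluorescein-labelled coactivator peptide and terbium anti-GST antibody. After room-temperature incubation, TR-FRET was read on a filter-based reader.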

For experiment [2], the target named is T2, glutathione-S-transferase (GST) tagged LXRalpha LBD (ligand binding domain) (Homo sapiens, UniProt Q13133).
T2 construct: purchased Invitrogen pv4655
T2 sequence (Q13133 209-447 limits assumed): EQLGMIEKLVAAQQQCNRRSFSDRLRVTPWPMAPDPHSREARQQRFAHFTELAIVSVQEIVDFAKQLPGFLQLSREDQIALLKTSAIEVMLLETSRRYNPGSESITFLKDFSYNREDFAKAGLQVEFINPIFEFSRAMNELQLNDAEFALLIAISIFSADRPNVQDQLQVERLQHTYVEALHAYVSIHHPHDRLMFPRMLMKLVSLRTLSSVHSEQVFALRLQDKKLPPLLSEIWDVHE
Briefly: LanthaScreen TR-FRET Liver X Receptor Coactivator Assay, LXR alpha-LBD. The class given is biochemical. Conditions: for Emax: efficacy in relation to reference dual agonist T1317, read-out: LXR alpha activity at max dose (%) (Emax); for EC50 / LXR alpha IP (nM): potency (Inflection Point) of co-activator recruitment, TR-FRET; for EC50: read-out: LXR alpha IP. A digest of the protocol: as §1

`CN(C)C(=O)c1ccc(-c2cnc(N3CCN(S(=O)(=O)c4c(Cl)cccc4C(F)(F)F)CC3)c(C#N)c2)cc1Cl` [Example 1-18, 2-chloro-4-[6-(4-{[2-chloro-6-(trifluoromethyl)phenyl]sulfonyl}piperazin-1-yl)-5-cyanopyridin-3-yl]-N,N-dimethylbenzamide]: the maximal effect (Emax) was 126% in experiment [1] and 62% in experiment [2]. The EC50 in experiment [1] stood at 151 nM; in experiment [2], 1670 nM.
The matching figures for `CN(C)C(=O)c1ccc(-c2ccc(N3CCN(S(=O)(=O)c4c(Cl)cccc4C(F)(F)F)CC3)cc2)cc1Cl` [Example 4-14, 3-chloro-4′-(4-{[2-chloro-6-(trifluoromethyl)phenyl]sulfonyl}piperazin-1-yl)-N,N-dimethylbiphenyl-4-carboxamide]: 88%, 25%, 549 nM and 9810 nM.
Turning to `CC(C)(C)OC(=O)N1CCN(c2ncc(-c3ccc(C(=O)N4CCC(O)CC4)c(Cl)c3)cc2C#N)CC1` [Example 5-17, tert-butyl 4-(5-{3-chloro-4-[(4-hydroxypiperidin-1-yl)carbonyl]phenyl}-3-cyanopyridin-2-yl)piperazine-1-carboxylate], in experiment [1], the maximum response (Emax) stood at 47% and the EC50 is 415 nM. Besides, in experiment [2], the maximum response (Emax) amounted to 17% and the “LXR alpha IP (nM)” value is on record as “No IP”.
In the case of `CN(C)C(=O)c1ccc(-c2cnc(N3CCN(C(=O)OCC4CC4(C)C)CC3)c(C#N)c2)cc1Cl` (stereo not drawn) [Example 3-13, (2,2-dimethylcyclopropyl)methyl 4-{5-[3-chloro-4-(dimethylcarbamoyl)phenyl]-3-cyanopyridin-2-yl}piperazine-1-carboxylate], in experiment [1], the maximum response (Emax) came to 31% and the EC50 is 105 nM. In experiment [2], the maximal effect (Emax) worked out at 16% and the “LXR alpha IP (nM)” value is listed as “No IP”.
As to `CN(C)C(=O)c1ccc(-c2cnc(N3CCN(S(=O)(=O)c4ccccc4C(F)(F)F)CC3)c(C#N)c2)cc1Cl` [Example 1-13, 2-chloro-4-[5-cyano-6-(4-{[2-(trifluoromethyl)phenyl]sulfonyl}piperazin-1-yl)pyridin-3-yl]-N,N-dimethylbenzamide], the Emax in experiment [1] was found to be 127%; in experiment [2], 60%. Further, the EC50 was found to be 11 nM in experiment [1] and 1000 nM in experiment [2].
The matching figures for `COc1ccccc1COC(=O)N1CCN(c2ncc(-c3ccc(C(=O)N(C)C)c(Cl)c3)cc2C#N)CC1` [Example 3-7, 2-methoxybenzyl 4-{5-[3-chloro-4-(dimethylcarbamoyl)phenyl]-3-cyanopyridin-2-yl}piperazine-1-carboxylate]: 85%, 41%, 36 nM and 8590 nM.
The matching figures for `CN(CCn1cncn1)C(=O)c1ccc(-c2cnc(N3CCN(C(=O)[C@](O)(c4ccccc4)C(F)(F)F)CC3)c(C#N)c2)cc1Cl` [Example 6-1, 2-chloro-4-(5-cyano-6-{4-[(2R)-3,3,3-trifluoro-2-hydroxy-2-phenylpropanoyl]piperazin-1-yl}pyridin-3-yl)-N-methyl-N-[2-(1H-1,2,4-triazol-yl)ethyl]benzamide]: 101%, 33%, 2 nM and 1170 nM.
The matching figures for `CN(C)C(=O)c1ccc(-c2ccc(N3CC4CCC3CN4C(=O)OC(C)(C)C)cc2)cc1Cl` (stereo not drawn) [Example 8-4, tert-butyl 5-[3′-chloro-4′-(dimethylcarbamoyl)biphenyl-4-yl]-2,5-diazabicyclo[2.2.2]octane-2-carboxylate]: 78%, 73%, 32 nM and 1500 nM.
As for `CN(C)C(=O)c1ccc(-c2ccc(N3CCCN(C(=O)OC(C)(C)C)CC3)cc2)cc1Cl` [Example 8-1, tert-butyl 4-[3′-chloro-4′-(dimethylcarbamoyl)biphenyl-4-yl]-1,4-diazepane-1-carboxylate], in experiment [1], the Emax came to 86% and the EC50 was 63 nM. Also, in experiment [2], the Emax is 55% and the EC50 was found to be 936 nM.
